Assay results as given in patent US10021877B2, “Substituted 5-hydroxy-2,3-diphenylpentanonitrile derivatives, processes for their preparation and their use as herbicides and/or plant growth regulators” (BAYER CROPSCIENCE AKTIENGESELLSCHAFT, priority 2013, dated 2018).

System: PHBPU=Pharbitis purpurea
Assay: Biological tests (herbicidal action) against PHBPU
Format: in vivo
Conditions: application rate 320 g/ha
Source text: Seeds of monocotyledonous and dicotyledonous weed plants and crop plants were placed in wood-fibre pots in sandy loam and covered with soil. The compounds (I) according to the invention, formulated in the form of wettable powders (WP), were then applied as aqueous suspension or emulsion at a water application rate of 600 l/ha (converted) with the addition of 0.2% of wetting agent to the surface of the covering soil.
After the treatment, the pots were placed in a greenhouse and kept under good growth conditions for the test plants. After about 3 weeks, the effect was scored visually in comparison with untreated controls as percentages. For example, 100% activity=the plants have died, 50% herbicidal activity or damage=the plants have been reduced by 50% or the plant mass has been reduced by 50%, 0% activity=like control plants.
Seeds of monocotyledonous and dicotyledonous weeds and crop plants were placed in sandy loam in wood-fibre pots, covered with soil and cultivated in a greenhouse under good growth conditions. […]
What was determined was the respective herbicidal activity, in each case at the same point in time after application of the formulation in question. i.e. the damage to the respective harmful plant in %.

Row | Structure (SMILES) | herbicidal activity against PHBPU
1 | N#C[C@@H](c1cccc(F)c1)[C@@H](CCO)c1ccc(Cl)cc1 [threo-1-Iba354] | 80%
2 | CC(=O)OCCC(c1cc(F)ccc1F)C(C#N)c1ccc(F)c(Br)c1 (mixture of isomers) [Ibb52] | 100%
